# Measured values taken from US20250241906A1, “ANABOLIC DRUGS STIMULATING TYPE II COLLAGEN PRODUCTION FROM CHONDROCYTES OR THEIR PROGENITORS” (UNIVERSITY OF CENTRAL FLORIDA RESEARCH FOUNDATION, INC., priority 2022, published 2025).
# Columns and labels:
# [1] = tested on: cartilage (destabilized meniscus model); conditions: cited from earlier work
# [2] = tested on: NF-κB and JAK2/STAT3 signaling; conditions: monolayer culture; cited from earlier work
# [3] = target: type II collagen promoter (COL2A1-Gaussia luciferase) in primary human chondrocytes; assay: HuCol2gLuc 3D aggregate type II collagen promoter-driven Gaussia luciferase assay; format: cell-based; conditions: HuCol2gLuc
# Method: Chondrogenic Culture. Human COL2A1-GLuc or uninfected cells were thawed and seeded in growth media on synoviocyte matrix at 6,000 cells/cm^2 and expanded to 90-100% confluence in physioxia. Cells were trypsinized (0.25% Trypsin/EDTA; Corning), resuspended in growth media (for monolayer culture) or chondrogenic differentiation media for 3D aggregates (93.24% High-Glucose DMEM (Gibco), 1% dexamethasone 10^−5M (Sigma), 1% ITS+premix (Becton-Dickinson), 1% Glutamax (Hyclone), 1% 100 mM Sodium Pyruvate (Hyclone), 1% MEM Non-Essential Amino Acids (Hyclone), 0.26% L-Ascorbic Acid Phosphate 50 mM (Wako), 0.5% Fungizone (Life Technologies) with TGF-β1 (Peprotech) and seeded as described below.
# Generation and Maintenance of 3D aggregates. To generate 3D aggregates, cells were seeded at 50,000 cells per well (in 96-well cell repellent u-bottom plates, GreinerBio) and then centrifuged at 500 RCF, 5 min. For the initial drug screen, aggregates were cultured in basal chondrogenic media (1 ng/ml TGF-β1) alone, with DMSO (vehicle control) or 5 μM of the drug compounds from the NCI library (Natural Products V, NCI). For candidate validation and subsequent studies aggregates were cultured in basal chondrogenic media (10 ng/ml TGF-β1) alone, with DMSO (vehicle control) or compounds as indicated in the results. Aggregates were cultured for three weeks in physioxic conditions, culture medium was sampled and replaced three times a week with fresh medium. An OT-2 (Opentrons) python coded robotic pipette, programmed at an aspiration height of 2 mm from the bottom of the wells and aspiration rate of 40 μl/s was utilized for addition of compound, cell feeding, and media sampling for luciferase assay. After three weeks, cell aggregates were either fixed in neutral buffered formalin for histology or medium removed and aggregates frozen dry (−20° C.) for biochemical assays.
# (§1) Luciferase Assay. Conditioned culture medium sampled from aggregates in 96-wells (20 μL/well) was assessed using a stabilized Gaussia Luciferase buffer mix (50 µl/well) for a final concentration of 0.09 M MES, 0.15M Ascorbic Acid, and 4.2 μM Coelenterazine in white 96-well plates. Luminescence was measured in a plate reader (25° C., relative light units (RLU), En Vision plate reader). An OT-2 (Opentrons) python coded robotic pipette was utilized for luciferase buffer addition to white plates (GreinerBio).
# [4] = target: type II collagen promoter (COL2A1-GLuc) in primary rabbit chondrocytes; assay: COL2A1-GLuc primary rabbit chondrocyte 3D aggregate luciferase assay; format: cell-based; conditions: 0-10 ng/ml
# Method: Chondrogenic Culture. Rabbit COL2A1-GLuc were thawed and seeded in growth media at 6000 cells/cm^2 and expanded to 90-100% confluence in physioxia. Cells were trypsinized (0.25% Trypsin/EDTA; Corning), resuspended in basal chondrogenic media (93.24% High-Glucose DMEM (Gibco), 1% dexamethasone 10^−5 M (Sigma), 1% ITS+premix (Becton-Dickinson), 1% Glutamax (Hyclone), 1% 100 mM Sodium Pyruvate (Hyclone), 1% MEM Non-Essential Amino Acids (Hyclone), 0.26% L-Ascorbic Acid Phosphate 50 mM (Wako), 0.5% Fungizone (Life Technologies) with TGF-β1 (Peprotech) and seeded as described below.
# Generation and Maintenance of 3D Aggregates. To generate 3D aggregates, cells were seeded at 50,000 cells per well (in 96-well cell repellent u-bottom plates, GreinerBio) and then centrifuged at 500 RCF, 5 min. For the TGF-β1 dose response studies, that serve as positive controls for the reporter cells, aggregates were cultured in basal chondrogenic media and different concentrations of TGF-β1 ranging from 0-10 ng/ml. For the DoE studies, aggregates were cultured in basal chondrogenic media (1 ng/ml TGF-β1) as a control or basal media supplemented with vitamins and minerals (Table 3 and Table 5). Plates were cultured for three weeks in physioxia, media was sampled and replaced three times a week with respective medium. An OT-2 (Opentrons) python coded robotic pipette, programmed at an aspiration height of 2 mm from the bottom of the wells and aspiration rate of 40 μl/s was utilized for media preparation, cell feeding, and media sampling for luciferase assay. After three weeks, cell aggregates were either fixed in neutral buffered formalin for histology or medium removed and aggregates frozen dry (−20° C.) for biochemical assays.
# as §1, with “Cell” for “Conditioned”, “the seeded” for “aggregates in”, “at” for “mix (50 µl/well) for”, “units,” for “units (RLU),”
# [5] = target: PRG4 (lubricin) promoter in primary human chondrocytes; assay: HuPRG4gLuc aggregate lubricin promoter-driven Gaussia luciferase assay, TGFβ1 dose response; format: cell-based; conditions: 0-40 ng/mL
# Method: HuPRG4gLuc reporter cell aggregate culture and TGFβ1 dose response. HuPRG4gLuc reporter chondrocytes were thawed from frozen stocks and seeded onto synoviocyte derived matrix coated flasks to expand to confluence (˜5 days, 37° C., 5% CO2 and 5% O2). Upon confluence, cells were trypsinized (0.25% Trypsin/EDTA, 5 min, 37° C.), neutralized with growth media (DMEM/F12 (Gibco) supplemented with 10% FBS (mesenchymal stromal cell selected and 1% penicillin-streptomycin (Hyclone)), then centrifuged (5 min, 500 RCF, room temperature [RT]). Cells were then resuspended in defined chondrogenic media (DMEM-HG 93.24% (Lonza), 1% 10^−5 M dexamethasone (Sigma), 1% ITS+premix (Becton-Dickinson), 1% Glutamax (Hyclone), 1% 100 mM Sodium Pyruvate (Hyclone), 1% MEM Non-Essential Amino Acids (Hyclone), 0.26% 50 mM L-Ascorbic Acid Phosphate (Wako), 0.5% Fungizone (Life Technologies)), and seeded (50,000 cells/well) onto a non-adherent 96-well plate (Greiner Bio), then centrifuged to form cell aggregates (5 min, 500 RCF, RT). […] Media containing the secreted Gaussia luciferase was sampled twice a week for luminescence (section 2.3). […]
# Luciferase assessment. As previously described, during the 22-day culture period, luminescence was assessed twice a week. […] Luminescence was read on a plate reader (PerkinElmer EnVision 2104 Multilabel Reader.
# HuPRG4gLuc aggregates = assay: Biochemical assays on HuPRG4gLuc aggregates; format: cell-based, human; conditions: day 22
# Method: Biochemical assays. As previously described, frozen samples were digested in papain (0.025 mg/mL papain in 50 mM sodium phosphate, 2 mM EDTA, 2 mM cysteine) overnight. Hoechst dye was used to quantify the DNA content of the digest, with calf thymus DNA (Sigma) as the standard. Samples were read on a plate reader (Ex365, Em460 nm, SpectraMax iD5, Molecular Devices). Dimethylmethylene blue (5 ml of 3.2 mg/mL DMMB dissolved in 200 proof ethanol added to 1L of 40 mM glycine, 40 mM NaCl at pH 1.5) colorimetric assay was used to quantify GAG content of the digest with absorbance readings at 525 nm and 595 nm (correction). Hydroxyproline (HDP) content was measured for total collagen quantification. Papain digested samples were acid hydrolyzed overnight (10:1 vol/vol, 6M HCl, 110° C.) and then dried overnight (70° C.). Copper sulfate (0.15M) and NaOH (2.5M) were added and incubated (50° C., 5 minutes). Oxidation occurred through 10-minute incubation with hydrogen peroxide (6% H2O2, 50° C.). Sulfuric acid was added (1.5M H2SO4) prior to reaction with Ehrlich's reagent (10% w/v 4-dimethylamino benzaldehyde in 60% isopropanol, 26% perchloric acid, 14% MΩ water) for a final incubation (70° C., 16 minutes). Absorbance was read at 505 nm (SpectraMax iD5, Molecular Devices) with hydroxyproline standard curve generated using hydroxyproline (Sigma). […]
compound,measurement,setting,value
NCCc1ccc(O)c(O)c1 [dopamine],decrease in OARSI score,[1],50%
same,NF-κB and JAK2/STAT3 signaling,[2],inhibition of NF-κB and JAK2/STAT3 signaling
"TGFβ1: transforming growth factor beta 1, known stimulator of chondrogenesis, type II collagen and lubricin [reference compound]",EC50 luminescence,"[3]; donor 2, day 7",0.142 ng/mL
same,EC50 luminescence,"[3]; donor 2, day 21",1.868 ng/mL
same,EC50 luminescence,"[3]; first donor, day 8, 0-100 ng/ml",0.780 ng/mL
same,EC50 luminescence,"[3]; first donor, day 17",2.702 ng/mL
same,EC50 luminescence,[4]; Day 7,0.17 ng/mL
same,EC50 luminescence,[4]; Day 21,0.10 ng/mL
same,EC50 luminescence,[5]; day 10,2.5 ng/mL
same,EC50 luminescence,[5]; day 22,4.2 ng/mL
same,EC50 DNA,HuPRG4gLuc aggregates,2.8 ng/mL
same,EC50 GAG/DNA,HuPRG4gLuc aggregates,4.8 ng/mL
